Experiment [1] relates to 783C-6. Nature of the experiment: High-throughput drug screen, CellTiter-Glo viability, 72 h. It counts as cell-based, human. Details: AUC: scale not given here. The conditions noted are these: for DSS: DSS calculated from the dose-response curve; for MIN: MIN of the fitted dose-response curve; for AUC: area under the dose-response curve; for SLOPE: slope of the fitted dose-response curve; for EC50: 72 h, read-out: EC50. As for the experimental part: (§1) The cells were seeded and incubated with a gradient of concentrations of drugs for 72 h, after which the cell viability was assessed (Supplementary Fig. 1a). The drug library primarily comprises epigenetic drugs, including HDAC inhibitors, DNA methyltransferase inhibitors, and histone demethylase inhibitors, as well as conventional chemotherapies and kinase inhibitors (Supplementary Fig. 1b and Supplementary Table 1). […] To identify novel therapeutics against CCA, we conducted a high-throughput screen employing PerkinElmer’s integrated robotic Explorer G3 workstations. […] Following dilution to five specified concentrations, drugs were dispensed into 96-well plates in the sequence detailed in Supplementary Fig. 1a. The CCA cell lines were subsequently plated in 384-well plates at a density of 3000 cells per well in a 20 μL total volume. After a 24-h incubation, the compounds were added to the wells and incubated for 72 h. We then quantified cell viability via the CellTiter-Glo luminescent assay according to the manufacturer’s protocol. Signal detection was carried out on a Synergy2 plate reader operated by Gen5 software (BioTek). For data processing, the raw luminescence data were processed through the Breeze pipeline for curve fitting, yielding quality control metrics (e.g., Z-factors) and drug response parameters (AUC and DSS), as adapted from previous work.[54] Drug responses were evaluated on the basis of the drug sensitivity score (DSS), and a cutoff of ≥10 was used to define efficacy. The complete drug library and screening dataset are available in Supplementary Tables 1-3.
(§2) Supplementary Fig. 1. A high-throughput drug screen to identify drugs targeting CCA. a Schematic representation of the drug screening protocol. […] Each drug was tested at five different concentrations (10, 1, 0.1, 0.01, and 0.001 μM), and each treatment was replicated twice. b Classification of drugs used for screening.

The subject of experiment [2] is 1405R3. Described as above. Details: AUC: scale not given here. It counts as cell-based, human. To be noted: 1405R3 DSRT analysis; for AUC: area under the dose-response curve; for MIN: lower asymptote of fitted dose-response curve; for SLOPE: slope of fitted dose-response curve; for EC50: fitted dose-response curve, Min.Conc.tested 1, Max.Conc.tested 10000, CellTiter-Glo, 72 h, read-out: EC50. As for the experimental part:
as §1, §2

Setting [3] is: 783C-6 DSRT analysis, CellTiter-Glo viability, fitted dose-response curve, Min.Conc.tested 1, Max.Conc.tested 10000.

Read-outs that look alike come from different tables or passages of the source.

Turning to `CCN(CCCOc1ccc2c(Nc3cc(CC(=O)Nc4cccc(F)c4)n[nH]3)ncnc2c1)CCOP(=O)(O)O` [Barasertib], in experiment [1] (783C-6 DSRT analysis), the DSS is recorded as 0, the MIN turned out to be 91.7 and the AUC was determined as 11.5. In experiment [2], the DSS came to 0, the AUC is recorded as 0.1 and the MIN stood at 100.

Turning to `O=C(O)CCCc1ccccc1` [Benzenebutyric acid], in experiment [1] (783C-6 DSRT analysis), the DSS was 0, the MIN came to 96.8, the AUC was 1.4 and the SLOPE is given as -0.7. Further, in experiment [2], the DSS was found to be 0, the AUC is 2.3, the MIN stood at 94.7 and the SLOPE is recorded as -0.7.

Turning to `O=S(=O)(Cl)c1ccc(-c2ccccc2)cc1` [Biphenyl-4-sulfonyl chloride], in experiment [1] (783C-6 DSRT analysis), the DSS is 0, the MIN turned out to be 88.2, the AUC was determined as 18.3 and the SLOPE is given as -0.1. In experiment [2], the DSS came to 0, the AUC was determined as 6.3, the MIN is recorded as 94 and the SLOPE is given as -0.2.

With `CC(C)(C)OC(=O)Nc1ccc(-c2cc(C(=O)NCCCCCCC(=O)NO)no2)cc1` [CAY10603], the EC50 (commonly the concentration giving half of the maximal effect) in experiment [1] (setting [3]) came out at 2730 nM. For the same compound, in experiment [1] (783C-6 DSRT analysis), the DSS was 4.4, the MIN was 30.8, the AUC is 39.5 and the SLOPE was -2.5. In addition, in experiment [2], the DSS came out at 5, the AUC came out at 45.4, the EC50 is 2720 nM and the MIN was 20.6. In addition, the SLOPE in experiment [2] was -2.5.

Regarding `COc1cc2c(NC3CCN(C)CC3)cc(-c3ccc(C)o3)nc2cc1OCCCN1CCCC1` [CM272], in experiment [1] (setting [3]), the EC50 is 311 nM. In addition, in experiment [1] (783C-6 DSRT analysis), the DSS is listed as 13.1, the MIN amounted to 28.5, the AUC came out at 107.8 and the SLOPE is -2.5. Besides, in experiment [2], the DSS was 6.8, the AUC is given as 59.8, the EC50 came out at 1980 nM and the MIN worked out at 15.5. Besides, the SLOPE in experiment [2] is recorded as -2.5.

In the case of `CCS(=O)(=O)N1CCC([C@@H](C)n2c(C)c(C(=O)NCc3c(OC)cc(C)[nH]c3=O)c3ccccc32)CC1` [CPI-169], in experiment [1] (783C-6 DSRT analysis), the DSS was 0, the MIN came to 97.5 and the AUC is on record as 1. Also, in experiment [2], the DSS came to 0, the AUC turned out to be 0.1 and the MIN is given as 100.

As for `Cc1sc2c(c1C)C(c1ccc(Cl)cc1)=N[C@@H](CC(N)=O)c1nnc(C)n1-2` [CPI-203], in experiment [1] (783C-6 DSRT analysis), the DSS was 0, the MIN was 93.6, the AUC was 3.2 and the SLOPE was -0.7. In experiment [2], the DSS came to 13, the AUC was determined as 111.9, the EC50 turned out to be 210 nM and the MIN was 33.4. In experiment [2], the SLOPE is -1.2.

With `COc1cc(C)[nH]c(=O)c1CNC(=O)c1c(C)n([C@H](C)C2CCOCC2)c2ccccc12` [CPI-360], in experiment [1] (783C-6 DSRT analysis), the DSS was 0.1, the MIN worked out at 84.8 and the AUC is listed as 36.1. In experiment [2], the DSS came to 0, the AUC turned out to be 11.9 and the MIN is recorded as 92.3.

As to `Cc1noc2c1-c1ccccc1C(c1ccc(Cl)cc1)=N[C@H]2CC(N)=O` [CPI-0610], in experiment [1] (783C-6 DSRT analysis), the DSS is reported as 0.7, the MIN is listed as 84.7 and the AUC was found to be 34.4. Besides, in experiment [2], the DSS turned out to be 6.7, the AUC was 64.6 and the MIN came to 49.2. Further, the EC50 in experiment [2] (Homo sapiens) was determined as 566 nM.

For `C#Cc1cccc(Nc2ncnc3cc(OC)c(OCCCCCCC(=O)NO)cc23)c1` [CUDC-101], the values for the DSS in experiment [1] (783C-6 DSRT analysis) and in experiment [2] were 8.7 and 10, respectively. Further, the MIN in experiment [1] (783C-6 DSRT analysis) was determined as 2.2; in experiment [2], 2.9. The AUC stood at 75.9 in experiment [1] (783C-6 DSRT analysis) and 85.7 in experiment [2]. In addition, the EC50 in experiment [1] (Homo sapiens) amounted to 1680 nM; in experiment [2] (Homo sapiens), 1310 nM.

In the case of `COc1ccc(-c2nc(N3CCOCC3)c3sc(CN(C)c4ncc(C(=O)NO)cn4)cc3n2)cn1` [CUDC-907], in experiment [1] (783C-6 DSRT analysis), the DSS is listed as 21.1, the MIN was determined as 2.9 and the AUC worked out at 175.2. Further, in experiment [1] (Homo sapiens), the EC50 is 157 nM. In experiment [2], the DSS was 22.6, the AUC came to 188.1 and the MIN is listed as 0.8. Moreover, the EC50 in experiment [2] (Homo sapiens) was 127 nM.

Turning to `C=CC(=O)Nc1cc2c(Nc3ccc(F)c(Cl)c3)ncnc2cc1OCCCN1CCOCC1` [Canertinib], in experiment [1] (783C-6 DSRT analysis), the DSS was 0, the MIN was 75.6 and the AUC is listed as 7.4. In experiment [2], the DSS stood at 0, the AUC is listed as 33.5 and the MIN was determined as 78.5.

On to `COc1cc2c(Oc3ccc4[nH]c(C)cc4c3F)ncnc2cc1OCCCN1CCCC1` [Cediranib], for which, in experiment [1] (783C-6 DSRT analysis), the DSS is 2.4, the MIN was determined as 57.8 and the AUC was found to be 23.3. The EC50 in experiment [1] (Homo sapiens) was 2850 nM. Also, in experiment [2], the DSS is listed as 5.6, the AUC is recorded as 50.5 and the MIN worked out at 9.6. In experiment [2] (Homo sapiens), the EC50 came to 2810 nM.

As to `N.N.[Cl][Pt][Cl]` [Cisplatin], the EC50 in experiment [1] (setting [3]) is 2630 nM. In addition, in experiment [1] (783C-6 DSRT analysis), the DSS is listed as 2, the MIN came out at 65.1, the AUC turned out to be 20.4 and the SLOPE is -2.5. Also, in experiment [2], the DSS was 2, the AUC came out at 22.7, the EC50 stood at 1650 nM and the MIN was determined as 71.3. In addition, the SLOPE in experiment [2] is -1.8.

Take `O=C(CCCCCCNC(=O)c1cnc(N(c2ccccc2)c2ccccc2Cl)nc1)NO` [Citarinostat]: in experiment [1] (783C-6 DSRT analysis), the DSS is 3.4, the MIN is on record as 50.9 and the AUC amounted to 31.7. Further, the EC50 in experiment [1] (Homo sapiens) was determined as 2280 nM. Further, in experiment [2], the DSS was found to be 3.5, the AUC amounted to 32.3 and the MIN came out at 46.8. Moreover, the EC50 in experiment [2] (Homo sapiens) is 2500 nM.

Consider `COc1cc(/C=C/C(=O)CC(=O)/C=C/c2ccc(O)c(OC)c2)ccc1O` [Curcumin], for which, in experiment [1] (783C-6 DSRT analysis), the DSS is recorded as 0, the MIN was determined as 96.8 and the AUC is reported as 2.1. Besides, in experiment [2], the DSS came to 0, the AUC is 1 and the MIN is on record as 97.3.

On to `Cc1sc2c(c1C)C(c1ccc(Cl)cc1)=N[C@@H](CC(=O)NCCCCCCCCNC(=O)COc1cccc3c1C(=O)N(C1CCC(=O)NC1=O)C3=O)c1nnc(C)n1-2` (stereo partly drawn) [DBET6], for which the EC50 in experiment [1] (setting [3]) is 1470 nM. Further, in experiment [1] (783C-6 DSRT analysis), the DSS is reported as 6.9, the MIN is 29.1, the AUC was found to be 59.2 and the SLOPE is listed as -2.5. Further, in experiment [2], the DSS came to 0.4, the AUC was determined as 8.2, the MIN is listed as 80 and the SLOPE is listed as -2.5.

`O=C(/C=C/c1ccc(CN(CCO)CCc2c[nH]c3ccccc23)cc1)NO` [Dacinostat]: in experiment [1] (783C-6 DSRT analysis), the DSS is 11.6, the MIN came out at 2.5 and the AUC worked out at 99. The EC50 in experiment [1] (Homo sapiens) came out at 965 nM. In experiment [2], the DSS turned out to be 15.8, the AUC is recorded as 132.5 and the MIN turned out to be 1.4. For the same compound, in experiment [2] (Homo sapiens), the EC50 stood at 453 nM.

On to `CN(C)NC(=O)CCC(=O)O` [Daminozide], for which, in experiment [1] (783C-6 DSRT analysis), the DSS is 0, the MIN was determined as 97.8 and the AUC is recorded as 1. Besides, in experiment [2], the DSS is 0, the AUC is recorded as 0.1 and the MIN worked out at 99.6.

Regarding `Nc1ncn([C@H]2C[C@H](O)[C@@H](CO)O2)c(=O)n1` [Decitabine], in experiment [1] (783C-6 DSRT analysis), the DSS is listed as 0.5, the MIN is listed as 88.5 and the AUC came out at 19.6. In experiment [2], the DSS is 0, the AUC is reported as 0.1 and the MIN is recorded as 100.

`CCCC(CCC)C(=O)O` [Divalproex Sodium]: in experiment [1] (783C-6 DSRT analysis), the DSS is on record as 0, the MIN was determined as 96.3 and the AUC stood at 0.4. For the same compound, in experiment [2], the DSS worked out at 0, the AUC worked out at 0.1 and the MIN stood at 100.

Values taken from article PMC12518634, “The noncanonical function of liver-type phosphofructokinase potentiates the efficacy of HDAC inhibitors in cancer” (Signal Transduction and Targeted Therapy, 2025).
